Reference: patent US6916478B2, “Vaccines and pharmaceutical compositions using membrane vesicles of microorganisms, and methods for preparing same” (priority 1995, dated 2005)

Assays:
[1] = system: P. aeruginosa strain ATCC 19660; assay: Antibiotic susceptibility test (MIC of gentamicin by dilution in MHB); assay type: cell-based, Pseudomonas aeruginosa; conditions: strain ATCC 19660, dilution in MHB
Procedure: (§1) Antibiotic susceptibility test. The Minimum Inhibitory Concentrations (MICs) of gentamicin were determined by dilution in MHB. The MICs for strains H 103 and ATCC 19660 were 2 and 2.5 μg/ml, respectively.

[2] = system: P. aeruginosa strain H 103; assay: as above; assay type: cell-based, Pseudomonas aeruginosa; conditions: strain H 103, dilution in MHB
Procedure: as §1

P. aeruginosa 8803 [3] = assay: Antibiotic susceptibility (broth dilution in Muller-Hinton broth); assay type: cell-based, Pseudomonas aeruginosa; conditions: 8803 (permeability-type gentamicin resistance)
Procedure: (§2) Antibiotic susceptibility. The susceptibilities of bacterial strains to gentamicin (Sigma) were determined by broth dilution method in Muller-Hinton broth (Kadurugamuwa, J. L. et al, 1993 Antimicrob. Agents Chemother. 37:715-721). The MICs for PAO1, 8803, D2C, and DH5α were 2, 128 (10), 1.0, and 1.0 μg/ml, respectively.

P. aeruginosa PAO1 [4] = assay: as above; assay type: cell-based, Pseudomonas aeruginosa
Procedure: as §2

Escherichia coli DH5α = assay: as above; assay type: cell-based
Procedure: as §2

[5] = system: Staphylococcus aureus Newman D2C; assay: as above; assay type: cell-based
Procedure: as §2

[6] = system: intracellular S. flexneri; assay: g-MV effect on intracellular S. flexneri in infected human colonic epithelial cells; assay type: cell-based, Shigella flexneri; conditions: FIG. 17
Procedure: Incubation of g-MVs (25 μg MV protein/25 cm^2 cover slip) with S. flexneri infected human colonic epithelial cells (10^7 CFU/25 cm^2 cover slip) (Kadurugamuwa et al, 1991 Infect. Immun. 59:3464-3471) inhibited the multiplication of intracellular bacteria by approximately 88% in the first hour of incubation (FIG. 17). […] Gentamicin could only enter these cells because it was packaged into a bilayered MV which could […] with the otherwise impermeable membrane and liberate its contents into the cytoplasm. Soluble antibiotic had no effect on growth of intracellular bacteria confirming the impermeability of eucaryotic cell membrane to the antibiotic (FIG. 17). […] The small effect of n-MVs on intracellular bacteria was presumably due to murein hydrolases in n-MVs.

P. aeruginosa 8803 [7] = assay: Bactericidal activity (viable counting 0-5 h); assay type: cell-based, Pseudomonas aeruginosa; conditions: MVs 100 μg protein/ml, gentamicin 100 μg/ml, FIG. 23(d)
Procedure: (§3) Bacteriolytic activity. […] Exponential growth phase cultures grown in TSB were diluted in fresh TSB to produce a bacterial suspension of 10^8 CFU/ml.

P. aeruginosa PAO1 [8] = assay: Bactericidal activity (viable counting 0-5 h); assay type: cell-based, Pseudomonas aeruginosa; conditions: MVs 100 μg protein/ml, gentamicin 2.5×MIC, FIG. 23(c)
Procedure: as §3

For gentamicin, the “Minimum Inhibitory Concentration (MIC)” value [1] was 2.5 µg/mL, the “Minimum Inhibitory Concentration (MIC)” value [2] was 2 µg/mL and the MIC (P. aeruginosa 8803 [3]) was 128 µg/mL. It also gave an MIC (P. aeruginosa PAO1 [4]) of 2 µg/mL, an MIC (Escherichia coli DH5α) of 1.0 µg/mL and an MIC [5] of 1.0 µg/mL. For the same substance, the “effect on growth of intracellular bacteria” value [6] was “no effect”, the “lytic effect on P. aeruginosa 8803 culture” value (P. aeruginosa 8803 [7]) was “(almost) direct correspondence between the control culture and the culture subjected to soluble gentamicin” and the “loss of viability of P. aeruginosa PAO1” value (P. aeruginosa PAO1 [8]) was “exquisitely sensitive”.
